{"source": "ChEMBL document CHEMBL5120754", "about": "“Structural modification aimed for improving solubility of lead compounds in early phase drug discovery” (Bioorg Med Chem, 2022)", "key": {"[1]": {"target": "Transient receptor potential cation channel subfamily V member 1 (Homo sapiens, UniProt Q8NER1)", "sequence (Q8NER1 whole entry)": "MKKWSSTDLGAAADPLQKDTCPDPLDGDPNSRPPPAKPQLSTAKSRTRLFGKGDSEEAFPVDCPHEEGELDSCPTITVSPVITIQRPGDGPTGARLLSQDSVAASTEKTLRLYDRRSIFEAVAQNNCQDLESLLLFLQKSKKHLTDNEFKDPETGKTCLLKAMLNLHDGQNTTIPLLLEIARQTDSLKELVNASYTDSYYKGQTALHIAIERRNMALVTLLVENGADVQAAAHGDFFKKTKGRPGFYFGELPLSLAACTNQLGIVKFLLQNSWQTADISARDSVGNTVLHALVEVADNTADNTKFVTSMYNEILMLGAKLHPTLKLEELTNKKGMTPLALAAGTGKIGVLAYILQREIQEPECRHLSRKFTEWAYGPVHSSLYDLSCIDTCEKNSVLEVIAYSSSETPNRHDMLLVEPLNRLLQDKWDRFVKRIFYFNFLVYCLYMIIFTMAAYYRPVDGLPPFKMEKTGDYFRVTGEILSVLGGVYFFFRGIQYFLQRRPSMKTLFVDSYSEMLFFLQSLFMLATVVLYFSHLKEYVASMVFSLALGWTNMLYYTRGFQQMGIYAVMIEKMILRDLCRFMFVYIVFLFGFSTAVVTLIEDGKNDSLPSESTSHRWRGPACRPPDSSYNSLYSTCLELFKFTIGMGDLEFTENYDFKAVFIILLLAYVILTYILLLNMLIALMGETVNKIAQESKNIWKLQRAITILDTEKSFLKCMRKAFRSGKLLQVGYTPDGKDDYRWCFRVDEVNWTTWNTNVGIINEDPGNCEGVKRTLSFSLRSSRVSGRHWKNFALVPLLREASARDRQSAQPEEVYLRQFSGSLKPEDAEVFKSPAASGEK", "experiment": "Antagonist activity at TRPV1 (unknown origin)"}, "physchem [2]": {"experiment": "physchem", "settings": "buffer"}, "[3]": {"target": "cGMP-specific 3',5'-cyclic phosphodiesterase (Homo sapiens, UniProt O76074)", "experiment": "Inhibition of PDE5 (unknown origin) using FAM-cGMP or FAM-cAMP as substrate incubated for 60 mins and measured by fluorescence polarization assay"}, "[4]": {"experiment": "Lipophilicity, logD of compound", "assay_type": "physicochemical", "settings": "octanol/water"}, "[5]": {"target": "T1, Glucose-dependent insulinotropic receptor (Homo sapiens, UniProt Q8TDV5)", "T1 sequence (Q8TDV5 whole entry)": "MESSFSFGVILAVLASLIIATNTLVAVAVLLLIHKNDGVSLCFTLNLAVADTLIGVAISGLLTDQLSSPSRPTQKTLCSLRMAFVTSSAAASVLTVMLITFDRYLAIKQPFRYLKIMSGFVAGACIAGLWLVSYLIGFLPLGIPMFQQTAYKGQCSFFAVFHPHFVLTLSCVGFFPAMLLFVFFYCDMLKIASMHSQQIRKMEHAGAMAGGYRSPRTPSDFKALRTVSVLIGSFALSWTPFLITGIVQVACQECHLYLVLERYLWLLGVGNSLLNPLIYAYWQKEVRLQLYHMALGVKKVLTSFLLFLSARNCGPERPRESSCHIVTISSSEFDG", "experiment": "Agonist activity at GPR119 (unknown origin)", "assay_type": "functional"}, "P2Y purinoceptor 12": {"target": "P2Y purinoceptor 12 (Homo sapiens, UniProt Q9H244)", "sequence (Q9H244 whole entry)": "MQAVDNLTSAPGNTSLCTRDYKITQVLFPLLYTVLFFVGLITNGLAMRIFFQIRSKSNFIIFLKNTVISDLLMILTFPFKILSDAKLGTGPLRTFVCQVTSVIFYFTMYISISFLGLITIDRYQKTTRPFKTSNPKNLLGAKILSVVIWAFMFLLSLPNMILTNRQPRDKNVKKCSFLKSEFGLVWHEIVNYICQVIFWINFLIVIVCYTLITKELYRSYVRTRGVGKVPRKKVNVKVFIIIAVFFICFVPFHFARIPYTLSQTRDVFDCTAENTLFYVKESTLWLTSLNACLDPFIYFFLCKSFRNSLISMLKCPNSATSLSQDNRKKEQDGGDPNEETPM", "experiment": "Antagonist activity at P2Y12 receptor in human platelet rich plasma", "assay_type": "functional"}, "Cannabinoid receptor 2": {"target": "Cannabinoid receptor 2 (Homo sapiens, UniProt P34972)", "sequence (P34972 whole entry)": "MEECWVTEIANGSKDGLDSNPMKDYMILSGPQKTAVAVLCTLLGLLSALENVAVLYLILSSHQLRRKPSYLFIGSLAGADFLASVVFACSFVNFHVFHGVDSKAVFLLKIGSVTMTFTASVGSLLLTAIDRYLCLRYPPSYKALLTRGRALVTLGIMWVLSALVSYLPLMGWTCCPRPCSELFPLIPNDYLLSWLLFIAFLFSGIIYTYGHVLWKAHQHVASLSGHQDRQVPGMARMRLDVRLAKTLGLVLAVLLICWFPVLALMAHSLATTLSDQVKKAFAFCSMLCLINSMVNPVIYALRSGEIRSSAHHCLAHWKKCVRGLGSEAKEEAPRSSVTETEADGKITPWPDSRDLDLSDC", "experiment": "Binding affinity towards human CB2 receptor"}, "[6]": {"settings": "buffer"}, "Hepatitis C virus": {"test_system": "Hepatitis C virus", "experiment": "Antiviral activity against HCV GT1b-genotype", "assay_type": "functional, organism-based, Hepacivirus hominis"}, "[7]": {"target": "3',5'-cyclic-AMP phosphodiesterase 4D (Homo sapiens, UniProt Q08499)", "sequence (Q08499 whole entry)": "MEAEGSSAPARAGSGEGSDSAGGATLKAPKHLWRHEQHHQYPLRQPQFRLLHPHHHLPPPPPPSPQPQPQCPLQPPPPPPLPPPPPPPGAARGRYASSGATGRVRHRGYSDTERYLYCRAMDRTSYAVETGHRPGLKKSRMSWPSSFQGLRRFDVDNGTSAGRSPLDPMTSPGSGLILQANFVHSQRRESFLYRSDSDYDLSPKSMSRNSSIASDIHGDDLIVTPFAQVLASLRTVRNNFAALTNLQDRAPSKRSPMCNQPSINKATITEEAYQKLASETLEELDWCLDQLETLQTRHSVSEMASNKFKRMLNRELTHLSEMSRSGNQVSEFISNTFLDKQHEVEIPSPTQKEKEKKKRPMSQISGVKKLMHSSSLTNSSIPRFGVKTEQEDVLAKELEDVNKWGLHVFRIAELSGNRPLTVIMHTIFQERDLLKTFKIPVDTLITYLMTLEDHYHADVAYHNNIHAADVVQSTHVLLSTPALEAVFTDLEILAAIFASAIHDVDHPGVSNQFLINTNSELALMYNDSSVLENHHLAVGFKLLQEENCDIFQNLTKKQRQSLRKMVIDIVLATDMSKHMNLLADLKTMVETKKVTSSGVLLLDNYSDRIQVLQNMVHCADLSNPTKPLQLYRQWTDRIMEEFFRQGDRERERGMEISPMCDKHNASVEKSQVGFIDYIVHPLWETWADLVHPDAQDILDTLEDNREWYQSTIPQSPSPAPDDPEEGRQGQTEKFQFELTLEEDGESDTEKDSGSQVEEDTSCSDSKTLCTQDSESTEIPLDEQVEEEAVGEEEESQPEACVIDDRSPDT", "experiment": "Inhibition of PDE4D (unknown origin)"}, "[8]": {"target": "Isocitrate dehydrogenase [NADP] cytoplasmic (Homo sapiens, UniProt O75874, R132H)", "sequence (O75874 2-414 R132H limits assumed)": "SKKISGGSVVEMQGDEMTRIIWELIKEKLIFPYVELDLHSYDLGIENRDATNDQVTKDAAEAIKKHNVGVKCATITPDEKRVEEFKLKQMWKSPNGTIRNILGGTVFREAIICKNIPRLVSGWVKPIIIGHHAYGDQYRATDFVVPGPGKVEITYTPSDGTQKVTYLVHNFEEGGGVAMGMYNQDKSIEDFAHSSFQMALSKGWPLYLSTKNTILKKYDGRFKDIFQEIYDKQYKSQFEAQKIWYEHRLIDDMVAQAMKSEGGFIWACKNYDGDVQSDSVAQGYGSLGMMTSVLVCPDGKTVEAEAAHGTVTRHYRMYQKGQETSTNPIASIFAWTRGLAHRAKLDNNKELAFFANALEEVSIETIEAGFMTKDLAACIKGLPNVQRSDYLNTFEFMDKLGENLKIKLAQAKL", "experiment": "Inhibition of IDH1 R132H mutant (unknown origin)"}, "[9]": {"test_system": "Trypanosoma brucei brucei", "experiment": "Antitrypanosomal activity against Trypanosoma brucei brucei S427 incubated for 48 hrs by PrestoBlue dye based fluorescence assay", "assay_type": "functional, organism-based", "settings": "S427, 48 h"}, "[10]": {"target": "Tyrosine-protein kinase SYK (Homo sapiens, UniProt P43405)", "experiment": "Inhibition of SYK (unknown origin)"}, "[11]": {"experiment": "Permeability of compound in human Caco-2 cells", "assay_type": "ADME, cell-based", "settings": "read-out: permeability"}, "physchem [12]": {"experiment": "physchem", "settings": "octanol/water"}, "[13]": {"target": "Metabotropic glutamate receptor 2 (Homo sapiens, UniProt Q14416)", "experiment": "Positive allosteric modulation of mGlu2 receptor (unknown origin)"}, "[14]": {"test_system": "Mycobacterium tuberculosis", "experiment": "microbe, parasite or virus in culture"}, "[15]": {"target": "Bifunctional epoxide hydrolase 2 (Homo sapiens, UniProt P34913)", "sequence (P34913 whole entry)": "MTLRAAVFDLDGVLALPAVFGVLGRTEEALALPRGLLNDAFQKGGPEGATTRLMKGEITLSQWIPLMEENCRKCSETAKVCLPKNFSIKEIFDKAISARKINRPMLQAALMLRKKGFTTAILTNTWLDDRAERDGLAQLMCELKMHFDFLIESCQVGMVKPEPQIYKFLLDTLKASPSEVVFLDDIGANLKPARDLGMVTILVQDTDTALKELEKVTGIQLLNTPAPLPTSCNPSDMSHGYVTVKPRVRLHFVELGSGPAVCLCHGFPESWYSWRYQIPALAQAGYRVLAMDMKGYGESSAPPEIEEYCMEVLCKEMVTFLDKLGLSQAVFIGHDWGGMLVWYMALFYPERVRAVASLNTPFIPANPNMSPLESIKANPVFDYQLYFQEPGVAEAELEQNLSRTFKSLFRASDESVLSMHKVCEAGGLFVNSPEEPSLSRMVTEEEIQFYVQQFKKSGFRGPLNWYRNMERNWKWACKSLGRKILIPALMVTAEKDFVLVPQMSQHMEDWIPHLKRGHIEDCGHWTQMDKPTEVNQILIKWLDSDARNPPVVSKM", "experiment": "Inhibition of recombinant human sEH using CMNPC as substrate incubated for 10 mins and measured by fluorescence assay"}, "[16]": {"target": "Epidermal growth factor receptor (Homo sapiens, UniProt P00533, L858R/T790M)", "sequence (P00533 25-1210 T790M/L858R limits assumed)": "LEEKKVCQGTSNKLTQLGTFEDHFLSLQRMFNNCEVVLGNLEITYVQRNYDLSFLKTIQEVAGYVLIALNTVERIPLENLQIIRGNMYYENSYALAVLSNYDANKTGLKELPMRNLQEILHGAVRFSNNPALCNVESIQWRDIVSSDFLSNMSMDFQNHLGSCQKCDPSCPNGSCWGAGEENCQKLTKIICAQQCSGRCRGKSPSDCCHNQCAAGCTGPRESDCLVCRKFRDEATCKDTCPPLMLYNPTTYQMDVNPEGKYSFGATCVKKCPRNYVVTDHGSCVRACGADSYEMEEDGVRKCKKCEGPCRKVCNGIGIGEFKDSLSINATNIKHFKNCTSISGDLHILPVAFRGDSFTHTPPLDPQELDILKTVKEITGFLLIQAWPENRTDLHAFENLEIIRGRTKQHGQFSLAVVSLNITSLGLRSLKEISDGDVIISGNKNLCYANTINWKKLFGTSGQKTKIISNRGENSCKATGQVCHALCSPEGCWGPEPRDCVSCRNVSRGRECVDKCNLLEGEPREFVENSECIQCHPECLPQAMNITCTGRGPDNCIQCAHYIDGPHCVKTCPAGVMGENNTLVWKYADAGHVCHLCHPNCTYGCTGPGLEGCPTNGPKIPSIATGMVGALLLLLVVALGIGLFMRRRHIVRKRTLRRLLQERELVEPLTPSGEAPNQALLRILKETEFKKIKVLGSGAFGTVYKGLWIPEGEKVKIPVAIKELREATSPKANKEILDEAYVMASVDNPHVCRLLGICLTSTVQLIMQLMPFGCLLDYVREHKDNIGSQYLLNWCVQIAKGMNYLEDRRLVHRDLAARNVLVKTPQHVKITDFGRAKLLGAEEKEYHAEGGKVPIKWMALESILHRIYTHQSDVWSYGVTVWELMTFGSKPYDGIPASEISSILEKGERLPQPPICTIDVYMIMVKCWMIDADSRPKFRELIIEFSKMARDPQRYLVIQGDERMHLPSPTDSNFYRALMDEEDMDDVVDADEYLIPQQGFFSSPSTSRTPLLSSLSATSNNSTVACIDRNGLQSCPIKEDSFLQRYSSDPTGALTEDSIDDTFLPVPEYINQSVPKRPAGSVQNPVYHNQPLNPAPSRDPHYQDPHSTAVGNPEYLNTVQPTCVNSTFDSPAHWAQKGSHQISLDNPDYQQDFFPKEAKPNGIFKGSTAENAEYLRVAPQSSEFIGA"}, "A549": {"test_system": "A549", "experiment": "Antiproliferative activity against human A549 cells by MTT assay", "assay_type": "functional, cell-based"}, "Glutamate NMDA receptor": {"target": "Glutamate NMDA receptor", "experiment": "Antagonist activity at NMDA receptor in rat cortical wedges assessed as inhibition of NMDA-induced depolarization"}, "[17]": {"target": "Corticotropin-releasing factor receptor 1 (Homo sapiens, UniProt P34998)", "sequence (P34998 whole entry)": "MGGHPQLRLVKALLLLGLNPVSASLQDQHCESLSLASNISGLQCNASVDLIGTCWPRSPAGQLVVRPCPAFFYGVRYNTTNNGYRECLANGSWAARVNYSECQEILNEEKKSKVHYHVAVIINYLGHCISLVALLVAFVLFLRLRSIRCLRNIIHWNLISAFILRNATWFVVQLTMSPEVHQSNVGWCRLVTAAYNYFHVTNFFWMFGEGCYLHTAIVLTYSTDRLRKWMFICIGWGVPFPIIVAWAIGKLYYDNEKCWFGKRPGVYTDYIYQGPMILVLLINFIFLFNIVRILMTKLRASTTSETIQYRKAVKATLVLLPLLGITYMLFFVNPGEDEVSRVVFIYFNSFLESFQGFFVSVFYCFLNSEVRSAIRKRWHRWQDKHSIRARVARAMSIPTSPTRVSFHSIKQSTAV", "experiment": "Antagonist activity at human CRF1 receptor", "assay_type": "functional"}, "[18]": {"experiment": "Antagonist activity at GlyN receptor (unknown origin)", "design": "species or system Homo sapiens"}, "[19]": {"target": "Glutamate receptor ionotropic AMPA (Homo sapiens, UniProt P42261+P42262+P42263+P48058)", "experiment": "Antagonist activity at AMPA receptor (unknown origin)", "assay_type": "protein-complex assay"}, "Staphylococcus aureus": {"test_system": "Staphylococcus aureus", "experiment": "Antibacterial activity against methicillin-resistant Staphylococcus aureus in in-vivo systemic infection model", "assay_type": "functional"}, "[20]": {"target": "Histone-lysine N-methyltransferase EZH2 (Homo sapiens, UniProt Q15910, Y641N)", "experiment": "Inhibition of EZH2 Y641N mutant (unknown origin)"}}, "data": [{"smiles": "CC(=O)Nc1nc2c(Oc3cc(C4=CCC(C(F)(F)F)CC4)ncn3)cccc2s1", "note": "(stereo not drawn)", "values": [{"measurement": "IC50", "setting": "[1]", "value": 27, "unit": "nM"}, {"measurement": "solubility thermodynamic", "setting": "physchem [2]", "value": 13, "unit": "µg/mL"}]}, {"smiles": "COc1ccc(CNc2c(CO)cnc3c(C4CC4)cc(C#N)cc23)cc1Cl", "values": [{"measurement": "IC50", "setting": "[3]", "value": 0.37, "unit": "nM"}, {"measurement": "solubility thermodynamic", "setting": "physchem [2]", "value": 3.9, "unit": "µM"}]}, {"smiles": "CC(C)c1nc(N2CCN(c3ncc(OCc4ccncc4C#N)cn3)CC2)no1", "values": [{"measurement": "logD", "setting": "[4]", "value": 3.3}, {"measurement": "EC50", "setting": "[5]", "value": 6, "unit": "nM"}, {"measurement": "solubility thermodynamic", "setting": "physchem [2]", "value": 6, "unit": "µM"}]}, {"smiles": "CCOC(=O)c1cc(C#N)c(N2CCC(C(=O)NS(=O)(=O)Cc3ccccc3)CC2)nc1C", "values": [{"measurement": "IC50", "setting": "P2Y purinoceptor 12", "value": 3600, "unit": "nM"}, {"measurement": "solubility thermodynamic", "setting": "physchem [2]", "value": 2.99, "unit": "µM"}]}, {"smiles": "CCCCCn1c(=O)c(C(=O)NC23CC4CC(CC(C4)C2)C3)c(O)c2ccc(F)cc21", "values": [{"measurement": "solubility thermodynamic", "setting": "physchem [2]", "value": 1.5, "unit": "µg/mL"}, {"measurement": "Ki", "setting": "Cannabinoid receptor 2", "value": 0.8, "unit": "nM"}]}, {"smiles": "COc1c(/C=C/c2ccc(NS(C)(=O)=O)cc2)cc(N2CCC(=O)NC2=O)cc1C(C)(C)C", "values": [{"measurement": "Therm_solubility", "setting": "[6]", "value": 20700, "unit": "µg/mL"}, {"measurement": "EC50", "setting": "Hepatitis C virus", "value": 0.3, "unit": "nM"}]}, {"smiles": "O=C(O)C1CCC(c2cc3cccnc3c(-c3cccc(F)c3)n2)CC1", "note": "(stereo not drawn)", "values": [{"measurement": "IC50", "setting": "[7]", "value": 32, "unit": "nM"}, {"measurement": "solubility thermodynamic", "setting": "physchem [2]", "value": 920, "unit": "µg/mL"}]}, {"smiles": "COc1nc(N[C@@H](C)c2cc3cc(Cl)ccc3[nH]c2=O)ncc1C#N", "values": [{"measurement": "solubility thermodynamic", "setting": "physchem [2]", "value": 10.5, "unit": "µM"}, {"measurement": "IC50", "setting": "[8]", "value": 81.4, "unit": "nM"}]}, {"smiles": "CN1CCCN(c2ncc(-c3ccc4c(Nc5cnccn5)ccnc4c3)cn2)CC1", "values": [{"measurement": "EC50", "setting": "[9]", "value": 13, "unit": "nM"}]}, {"smiles": "CC(C)N1C[C@H]2C[C@@H]1CN2c1ccc(Nc2nc(-c3ccc4cn[nH]c4c3)cn3ccnc23)cc1", "values": [{"measurement": "IC50", "setting": "[10]", "value": 80, "unit": "nM"}, {"measurement": "solubility thermodynamic", "setting": "physchem [2]", "value": 0.216, "unit": "µg/mL"}]}, {"smiles": "Fc1ccc(C2CCC(c3ccn4c(CC5CC5)nnc4c3C(F)(F)F)CC2)c(F)c1", "note": "(stereo not drawn)", "values": [{"measurement": "Papp", "setting": "[11]", "value": 22, "unit": "×10⁻⁶ cm/s"}, {"measurement": "logP", "setting": "physchem [12]", "value": 4.2}, {"measurement": "EC50", "setting": "[13]", "value": 78, "unit": "nM"}, {"measurement": "solubility thermodynamic", "setting": "physchem [2]", "value": 50, "unit": "µg/mL"}]}, {"smiles": "O=C(NC1=CC=CC1)NC12CC3CC(CC(C3)C1)C2", "values": [{"measurement": "MIC", "setting": "[14]", "value": 0.01, "unit": "µg/mL"}, {"measurement": "solubility thermodynamic", "setting": "physchem [2]", "value": 0.1, "unit": "µg/mL"}, {"measurement": "IC50", "setting": "[15]", "value": 0.4, "unit": "nM"}]}, {"smiles": "C=CC(=O)N1CCC(N2C(=O)N(c3ccccc3)Cc3cnc(Nc4ccc(N5CCN(C)CC5)c(C)c4)nc32)C1", "note": "(stereo not drawn)", "values": [{"measurement": "IC50", "setting": "[16]", "value": 9.2, "unit": "nM"}]}, {"smiles": "CC[C@]1(OC(=O)CNC(=O)CCC(=O)O)C(=O)OCc2c1ccn(Cc1cnc3ccc4c(c3c1)C(=O)NC(C(C)C)O4)c2=O", "note": "(stereo partly drawn)", "values": [{"measurement": "IC50", "setting": "A549", "value": 6470, "unit": "nM"}, {"measurement": "solubility thermodynamic", "setting": "physchem [2]", "value": 3400, "unit": "µg/mL"}]}, {"smiles": "CCC(c1c(Cl)c(Cl)cc2nc(O)c(O)nc12)n1cncn1", "note": "(stereo not drawn)", "values": [{"measurement": "IC50", "setting": "Glutamate NMDA receptor", "value": 4.4, "unit": "nM"}, {"measurement": "solubility thermodynamic", "setting": "physchem [2]", "value": 10, "unit": "µg/mL"}]}, {"smiles": "CCCN(CC1CC1)c1cc(C)nc2c(-c3ccc(Cl)cc3Cl)c(C)nn12", "values": [{"measurement": "IC50", "setting": "[17]", "value": 76, "unit": "nM"}]}, {"smiles": "CCOC(=O)CN(C)Cc1c(CC)c([N+](=O)[O-])cc2nc(O)c(O)nc12", "values": [{"measurement": "IC50", "setting": "[18]", "value": 470, "unit": "nM"}, {"measurement": "solubility thermodynamic", "setting": "physchem [2]", "value": 150, "unit": "µg/mL"}, {"measurement": "IC50", "setting": "[19]", "value": 140, "unit": "nM"}]}, {"smiles": "CC(=O)NC[C@H]1CN(c2ccc(N3CCOCC3)c(F)c2)C(=O)O1", "note": "[LINEZOLID]", "values": [{"measurement": "ED50", "setting": "Staphylococcus aureus", "value": 5, "unit": "mg/kg"}]}, {"smiles": "COc1cc(C)[nH]c(=O)c1CN1CCc2c(Cl)cc([C@H](OC)C3COC3)c(Cl)c2C1=O", "note": "[MEVROMETOSTAT]", "values": [{"measurement": "Ki", "setting": "[20]", "value": "< 0.1", "unit": "nM"}]}]}
